According to patent US8637040B2, “Genus-wide chlamydial peptide vaccine antigens” (priority 2008, dated 2014):

Assays:
[1] = test system: C. trachomatis-infected HEp2 cells; experiment: Indirect immunofluorescence of immune sera on infected HEp2 cells; type: cell-based, human; conditions: sera 1:40 dilution, FITC anti-mouse IgG
Excerpt: Micrographs of HEp2 cells infected with C. trachomatis are immunostained (by indirect immunofluorescence) with sera (1:40 dilution) from mice immunized with the designated peptides (A-E) or soluble. mAb2 (F). FITC anti-mouse IgG was the detecting antibody. Arrows point to distinct differences in targets of the immune sera. Antibodies in panels A-C recognized EB and RB and possibly some matrix material in the inclusion. Antibodies in D-E also recognized targets in the inclusion matrix and inclusion membrane, similar to immune sera raised against the older vaccine candidate, the entire mAb2 (F). 40× original magnification. Samples are counterstained with Evans blue.
HEp2 cells were infected with C. trachomatis were subjected to cytocentrifugation to deposit them onto microscope slides. After fixation (MeOH) they were stained with sera (1:40 dilution) from mice immunized with the indicated peptides or with soluble mAb2. The binding of the antibodies to the cells was detected using a fluorescent (FITC-labeled) secondary Ab, an anti-mouse IgG. Results appear in FIGS. 9A-F.

[2] = Encapsulation of Pep4 in PLGA nanoparticles and peptide release; type: physicochemical; conditions: carbonate buffer, ELISA with anti-Pep4 antiserum standard curve
Experimental: One preferred approach to the preparation of peptide-loaded polylactide (PLA) or PLGA micro- and/or nanoparticles follows. Biodegradable PLA or PLGA nanoparticles (NPs) loaded with the selected peptides is prepared using a modified version of the double emulsion solvent evaporation technique, in a procedure similar to that previously described by Li and co-workers (139). […] Briefly, an aqueous solution of the peptide is emulsified in dichloromethane containing the PLGA (using an ultrasonic homogenizer), thus forming the primary water-in-oil (w/o) emulsion. The prepared w/o emulsion is then emulsified in a second aqueous phase containing polyvinyl alcohol (PVA) as stabilizer, thus resulting in the multiple w/o/w emulsion. The double emulsion is later added into a large volume of aqueous solution of PVA, and stirred for several hours to evaporate the organic solvent. The resulting nanoparticles are then collected by centrifugation and washed (removing PVA) several times before lyophilization to remove the remaining water (139,140). The powder is kept at −80° C. until use. […] Optimal peptide loading concentrations for protective immunization are determined empirically, e.g., by comparing orally delivered peptide-NP to free peptide delivered subcutaneously. […]

[3] = test system: Pep4, Pep7, Pep8, Pep10; experiment: Cross-reactivity between peptides in ELISA; type: binding; conditions: sera of mice immunized with a single peptide
Experimental: Blood was collected prior to immunizations and prior to the two boosts. Sera were tested in ELISA. The ELISA method used in the present examples, in which many if not all the parameters and conditions may be varied or modified in ways that are completely conventional in the art, is described below. • 1. 96 well plates (Immulon HBX4) were coated with 50 μl of diluted antigen (peptides at 1 μg/well made in carbonate buffer) and incubated overnight at 4° C. • 2. Unbound antigen was removed by flicking the contents of the plate into a sink without further washing. • 3. Non-specific binding was blocked or prevented by adding 300 μL/well of 4% BSA/PBS-Tween 20 (0.05%). This was allowed to incubate for 2 hour at room temperature. • 4. The plates were washed once with PBS-Tween 20 (0.05%) and 50 μl of primary antibody was added per well at appropriate dilutions. When using serum, the starting dilution was 1:40 and was further diluted by doublings to 1:80, 1:160, and 1:320 (or higher as desired). Plates were incubated for 1 hour at 37° C. • 5. Plates were washed three times with PBS-Tween (0.05%) as above and 100 μl of secondary antibody was added per well at appropriate dilutions. For alkaline phosphatase-conjugated goat anti-mouse IgG-AP, a dilution of 1:500 was used here. Plates were incubated for 1 hour at 37° C. • 6. Plates were again washed three times as above and 200 μl of substrate solution for Alkaline phosphatase (p-nitro phenyl phosphate or pNPP) was added at a concentration of 5 mg/ml. The color reaction was read in an automated microplate reader at a frequency of […] and the absorbance (or optical density) was registered (referred to as A405 or OD405) Several important observations were made in these tests against the 4 peptides: (a) all 4 peptides were immunogenic and induced increasing anti-peptide responses with subsequent boosts in all mice (except in one non-responder) (FIG. 3). […] See also FIG. 16A-16B
Both of these are category #1 peptides. […] That supports the notion that CDR1 and CDR3 of mAb2 are antigenically distinct.

AFPQFRSATLLL [Pep4]
structures recognized by immune sera in infected cells [1]: recognized EB and metabolically active, non-infectious reticulate bodies (RB)
release of peptide [2]: about 3.8 μg/ml/day
cross-reactivity of raised Abs with Pep7 (ELISA) [3]: cross reacted
